From patent US20170027897A1, “mTORC1 MODULATION BY AMINO ACIDS AND USES THEREOF” (WHITEHEAD INSTITUTE FOR BIOMEDICAL RESEARCH, priority 2013, published 2017)

Legend:
RagA^GTP/GTP neonates = assay: Survival, glucose homeostasis and autophagy of fasted RagA^GTP/GTP neonates; type: in vivo, mouse
Protocol: NS, not significant. […] FIG. 10G is a series of bar graphs illustrating the quantification of neonatal plasma amounts of branched-chain (BCAA) and essential amino acids at birth (left), after 10 h fasting (middle) and after 10 h fasting with rapamycin treatment (right) (n for +/+, G/+ and G/G, respectively: n=4, 5 and 4 for 0 h; n=4, 4 and 3 for 10 h; n=2, 5 and 3 for rapamycin; mean±s.d.). Values are expressed relative to RagA^+/+ amounts at each time point.

[1] = system: mice, hindlimb immobilization model of muscle atrophy; assay: Hindlimb immobilization/recovery model of muscle atrophy, gastrocnemius mass; type: in vivo, mouse; conditions: left hindlimb immobilized 5 days, 5 days recovery; IP twice daily; rapamycin daily where indicated
Protocol: Mice were subjected to immobilization of the left hind limb for 5 days followed by a 5-day recovery period. Each mouse was injected intraperitoneally twice daily at 9 am and 6 pm during the whole immobilization/recovery periods with the indicated amino acid esters or vehicle control. Rapamycin or vehicle control was injected daily where indicated. Following completion of the study both the right and left gastrocnemius were removed and mass of each muscle was recorded. Percent recovery was calculated by comparing the mass of the left immobilized gastrocnemius to that of the contralateral control leg. Standard error is shown, n=5-6 per treatment.
The protocol of hindlimb immobilization involves casting of the rear left leg, resulting in atrophy of the gastrocnemius and soleus muscles. The rear right leg remains free, and serves as an internal control for gastrocnemius and soleus muscle mass.
The inventors performed an experiment where left hindlimbs were immobilized for 5 days, casts were removed, and a recovery period of 5 days continued until the study endpoint. Animals were injected with PBS as control, L ethyl ester, or LR ethyl esters twice daily. As in the previous experiment, the 1× doses of amino acids and their esters were calculated as 20% of the amount that an adult mouse eats in a 24 h period under ad libitum conditions. […]

mTORC1 [2] = assay: Amino acid starvation and re-stimulation of HEK-293T cells, phospho-S6K western blot; type: cell-based, human; conditions: whole-cell assays of mTORC1 activity; partly called preliminary evidence
Source text: The work described herein determined which amino acids are most critical for signaling to the mTORC1 pathway in HEK-293T cells, the workhorse cell culture system to which we owe much of our understanding about amino acid sensing. The basic experimental paradigm consists of a 50-minute total amino acid starvation followed by a 10-minute stimulation with a customizable set of amino acids. […] The work described herein determined that that there may be one or more missing amino acids that, when added alongside Leu and Arg, could fully activate mTORC1.
To determine the identities of these missing amino acids, the inventors first stimulated cells with the set of essential or the set of nonessential amino acids. […] The inventors then tested triplet amino acid combinations comprised of Leu, Arg, and one additional essential amino acid. […] Cocktails of EAAs that omitted one amino acid at a time were prepared. […] Thus the necessity and sufficiency experiments yielded complementary results, converging on Leu, Arg, and Lys as key signals for mTORC1 activation in 293T cells.
The inventors have explored why this particular combination of amino acids has such synergistic effects on the mTORC1 pathway in 293T cells. Given that both Arg and Lys contain basic side chains, the inventors first wondered if this shared chemical property underlay their abilities to activate mTORC1.
Furthermore, the inventors continue to characterize structure-activity relationships using LRK derivatives with modifications on the carboxy terminus, the amino terminus, and/or the side chain in whole-cell and in vitro lysosomal assays of mTORC1 activity. The inventors first tested amino acid carboxyesters, whose enhanced ability to permeate membranes render them good candidates for lysosomal loading. Once inside the lysosome, amino acid esters are thought to undergo hydrolysis to yield their native counterparts. […] Knowledge of the chemical space around LRK can be used to develop probes for interrogating the LRK/protein(s) interaction interface for isolating and/or enriching the amino acid sensor(s) feeding into mTORC1.

mTORC1 [3] = assay: mTORC1 activity in MEFs (immunoblotting); type: cell-based, mouse; conditions: AMPK activator treatment
Protocol: FIG. 16A is a bar graph illustrating the decrease in plasma amino acids in all 1 h fasted neonates. […] FIG. 16C is a western blot depicting the time course of mTORC1 and AMPK activity in AMPK-wt, AMPK-DKO, RagA^+/+ and RagA^GTP/GTP MEFs deprived of glucose for 0.5, 2 and 4 h. FIG. 16D is a western blot of whole cell lysates immunoblotted for the indicated proteins, showing control HEK-293T cells or those expressing RagB^GTP were deprived of growth factors, glucose, amino acids, or glucose and amino acids for 1 h and re-stimulated with glucose and/or amino acids for 10 min. FIG. 16E is a graph illustrating the quantification of the western blots on FIG. 12B and FIG. 16D. FIG. 16F is a western blot showing the effect of amino acid esters on mTORC1 activity in wt MEFs. FIG. 16G is a bar graph showing the quantification of amino acids in RagA^+/+ and RagA^GTP/GTP MEFs deprived of glucose (relative to un-starved controls). […]
Maintenance of mTORC1 activity requires the simultaneous presence of growth factors, amino acids, and glucose^1. […] In addition, AMPK activity, as monitored by acetyl-CoA carboxylase (ACC) phosphorylation, was induced to similar levels in glucose-deprived RagA^+/+ and RagA^GTP/GTP cells (FIG. 12B and FIG. 16C), but absent in AMPK-null cells (FIG. 12A).

muscle protein synthesis = assay: Muscle protein synthetic rate in starved rats (flooding dose of radiolabeled phenylalanine); type: in vivo, rat; conditions: oral, 25% dose, 45 minutes, versus fasted vehicle control
Protocol: FIGS. 24A and 24B depict the effect of various amino acid combinations or a Leu-Arg-Lys tripeptide on phosphorylation of an mTORC1 substrate and the rate of muscle protein synthesis in starved rats.
To address this question, starved rats (n=8) were given oral doses of leucine, LR, LR(k), LC(k) and the LRK peptide and muscle protein synthetic rates were measured by administering a flooding dose of radiolabeled phenylalanine 10 minutes before sacrifice and quantifying uptake of radiolabeled phenylalanine.
Starved rats were dosed with amino acids benchmarked to either 5% of 25% of their daily intake of leucine. Rats were sacrificed 45 minutes after oral gavage and tissues and plasma was collected for mTORC1 signaling assessment, quantification of plasma leucine levels and measurement of protein synthetic rates.

mTORC1 [4] = assay: Muscle mTORC1 activation in immobilized and fasted mice after IP injection (phosphorylated S6, 4EBP1); type: in vivo, mouse; conditions: 18-hour fast, 30 minutes
Protocol: Mice were subjected to a model of hindlimb immobilization for 5 days in which the left hindlimb was casted as described in Example 2 in order to induce atrophy. Food and water were provided ad libitum. The night before day 6, food was withdrawn and the mice were subjected to an 18-hour overnight fast. […] Right (R; control) and left (L*; immobilized) gastrocnemius muscles were collected 30 minutes after treatment, snap frozen in liquid nitrogen, and processed for western blotting analysis with appropriate antibodies as previously described.

[5] = cited from earlier work
[6] = Free amino acid levels in gastrocnemius muscle by LC-MS in fasted mice; type: in vivo, mouse; conditions: upon IP injection of citrulline containing formulations
mTORC1 [7] = assay: Phosphorylated S6 in gastrocnemius muscle and liver of fasted rats after oral gavage or bolus IV injection; type: in vivo; conditions: summary of the rat studies
Protocol: FIGS. 23A, 23B, 23C and 23D depict the effect of administering various combinations of amino acids on levels of phosphorylated ribosomal protein S6 (pS6) in gastrocnemius muscle and liver. FIGS. 23A and 23B are bar graphs showing the fold increase in pS6/actin protein ratios in fasted rat gastrocnemius muscle (FIG. 23A) or liver (FIG. 23B) 30 and 60 minutes after administering amino acids via oral gavage. FIGS. 23C and 23D are bar graphs showing the fold increase in pS6/actin protein ratios in fasted rat gastrocnemius muscle (FIG. 23C) or liver (FIG. 23D) 30 and 60 minutes after administering amino acids via intravenous bolus injection.
Rats (n=3), fasted for 24 hours, were administered LRK or LCK via oral gavage or bolus IV injection and gastrocnemius muscle and liver was isolated 30 and 60 minutes later. Gastrocnemius muscle and liver was analyzed by SDS-PAGE followed by western blotting for levels of phosphorylated S6—a marker of mTORC1 activity.

mTORC1 [8] = assay: Assaying L, R, K analogs for mTORC1 modulation in whole cells (pS6K); type: cell-based, human
Protocol: Generally, to test analogs of L, R, and K, whole cells (e.g., HEK293) can be starved of all amino acids (using RPMI—aa) for a period of time (e.g., about 50 min), and then stimulated with a combination of L, R, or K and/or an analog of L, R, or K, and mTORC1 activity can be measured by phosphorylation of an mTORC1 substrate (e.g., S6K).
Below are exemplary conditions which can be used to assay analogs of leucine (e.g., photoleucine (photoLeu)) for their ability to activate or suppress mTORC1 activity.
4) RK+0.1× photoLeu 5) RK+0.5× photoLeu 6) RK+1× photoLeu 7) RK+10× photoLeu
9) LRK+0.1× photoLeu 10) LRK+0.5× photoLeu 11) LRK+1× photoLeu 12) LRK+10× photoLeu
Conditions 3-7 above test whether or not a leucine analog (e.g., photoLeu) can substitute for native Leu. […] Those skilled in the art will appreciate that conditions 3-7 above can be modified to assay other analogs, for example, by replacing RK with LK to assay R analogs or by replacing RK with LR to assay K analogs.
Conditions 8-12 above test whether or not a leucine analog (e.g., photoLeu) can compete against native Leu.
The concentration range of analogs used in the protocol set forth above was from about 0.1× to 10× (relative to RPMI), however, other concentrations may be used, as will be appreciated by the skilled artisan.

## CO[C@H]1C[C@@H]2CC[C@@H](C)[C@@](O)(O2)C(=O)C(=O)N2CCCC[C@H]2C(=O)O[C@H]([C@H](C)C[C@@H]2CC[C@@H](O)[C@H](OC)C2)CC(=O)[C@H](C)/C=C(\C)[C@@H](O)[C@@H](OC)C(=O)[C@H](C)C[C@H](C)/C=C/C=C/C=C/1C [rapamycin]
RagA^GTP/GTP neonates; treated at birth, untreated ˜14 h, p<0.01
  time to death of fasted RagA^GTP/GTP neonates: ~21 h

## CCOC(=O)[C@@H](N)CC(C)C [leucine ethyl ester, L-leucine ethyl ester]
[1]
  relative gastrocnemius muscle mass compared to control (PBS injected mice): the only treatment that led to a significant increase in gastrocnemius muscle mass was LR ethyl ester treatment
mTORC1 [2]
  mTORC1 stimulatory activity of derivative compared with the corresponding native amino acid: modestly more stimulatory than the corresponding native amino acid

## CCOC(=O)[C@@H](N)CCCCN [lysine ethyl ester]
mTORC1 [2]
  mTORC1 stimulatory activity of derivative compared with the corresponding native amino acid: modestly more stimulatory than the corresponding native amino acid

## COC(=O)[C@@H](N)CC(C)C [leucine methyl ester]
mTORC1 [2]
  mTORC1 stimulatory activity of derivative compared with the corresponding native amino acid: modestly more stimulatory than the corresponding native amino acid

## CC(C)C[C@H](NC(=O)OCc1ccccc1)C(=O)O
mTORC1 [2]
  mTORC1 stimulatory activity of derivative compared with the corresponding native amino acid: retains the ability to signal to mTORC1, albeit with lower potency than native Leu

## C[C@H](N)C(=O)O [alanine]
RagA^GTP/GTP neonates; all neonates regardless of genotype
  glycaemia of fasted neonates after injection: provoked a significant increase in glycaemia

## COC(=O)[C@@H](N)CCCCN [lysine methyl ester]
mTORC1 [2]
  mTORC1 stimulatory activity of derivative compared with the corresponding native amino acid: modestly more stimulatory than the corresponding native amino acid

## NC(=O)c1ncn([C@@H]2O[C@H](CO)[C@@H](O)[C@H]2O)c1N [AICAR, aminoimidazole carboxamide ribonucleotide]
mTORC1 [3]
  mTORC1 activity in RagA^+/+ and RagA^GTP/GTP MEFs: inhibited mTORC1 in cells of all genotypes

## CC(C)C[C@H](N)C(=O)O [leucine, L-leucine]
Muscle protein synthesis
  muscle protein synthesis (MPS) rate in gastrocnemius: little difference between fasted rats and rats given leucine alone
mTORC1 [4]
  mTORC1 activity (phosphorylated S6 and 4EBP1) in non-immobilized (R) gastrocnemius: stimulated mTORC1 in the non-immobilized muscle in all mice
mTORC1 [4]; 5 days immobilization, LRK = 1× (L-Leucine, L-Arginine) plus 0.1× L-Lysine
  mTORC1 activity (phosphorylated S6 and 4EBP1) in immobilized (L*) gastrocnemius compared to fasted controls: unable to increase mTORC1 activity in the immobilized (L*) gastrocnemius muscle in four of the 5 mice

## NCCCC[C@H](N)C(=O)O [lysine, L-lysine]
[5]; Fry C S et al. 2011
  bioavailability of orally ingested amino acid: superior to leucine and arginine

## NC(=O)NCCC[C@H](N)C(=O)O [citrulline, L-Citrulline]
[5]; Bahri S. et al. 2013
  circulating citrulline converted to arginine by the kidneys: over 80%
[6]
  conversion of citrulline to arginine: little to no conversion of citrulline to arginine
mTORC1 [7]
  mTORC1 activation at the level of muscle, as substitute for arginine: adequate substitute for arginine for mTORC1 activation at the level of muscle
  mTORC1 activation in liver, as substitute for arginine: less potent at activating mTORC1 in liver

## CC1(C[C@H](N)C(=O)O)N=N1 [photoLeu]
mTORC1 [8]; LRK + 0.1× to 10× analog (relative to RPMI)
  suppression of pS6K signal caused by baseline LRK (antagonist test): not an antagonist or mTORC1-inactivating competitor against native Leu
mTORC1 [8]; RK + 0.1× to 10× analog (relative to RPMI)
  pS6K signal when analog substitutes for native Leu (agonist test): pS6K signal increases
mTORC1 [2]
  mTORC1 stimulatory activity of derivative compared with the corresponding native amino acid: retains some mTORC1 stimulatory activity
